In US11453703B2, “Heterotandem bicyclic peptide complexes” (BicycleTX Limited, priority 2018, dated 2022):

Legend:
[1] = target: T1, CD137 (Homo sapiens, UniProt Q07011); test: CD137 reporter assay, co-culture with Nectin-4 tumour cells; type: cell-based; set-up: host or cells: Jurkat reporter cells;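 also: jurkat reporter cells co-cultured with tumour cells and test article for 6 h, luminescence signal relative to Jurkat plus tumour cells lacking test article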
[2] = system: human PBMC co-cultured with 4T1-D02 (Nectin4+); test: Human PBMC-4T1 co-culture (cytokine release) assay; type: cell-based; conditions: anti-CD3 stimulated PBMC, 48 hours
Experimental: Mouse mammary gland tumor cell line 4T1-1 (4T1-Parental) and murine Nectin-4 overexpressing 4T1 (4T1-D02) were cultured in RPMI1640 supplemented with 10% heat-inactivated Fetal Bovine Serum, 100 I.U/ml Penicillin and 100 I.U/Streptomycin, 20 mM HEPES, 1× Non-Essential Amino Acids, and 2 mM L-Glutamine (RPMI working medium). Frozen PBMCs from healthy human donors were thawed and washed one time in room temperature PBS, and then resuspended in RPMI working medium. For tumor cell and PBMC co-culture, 10000 PBMCs and 2000 tumor cells (5:1) were mixed and plated in each well of a 384 well plate. For stimulating human PBMCs, 125 ng/ml of soluble anti-CD3 mAb (clone OKT3) was added to the culture on day 0. Test, control compounds or vehicle controls were added to respective wells and brought the final volume per well to 100u1. Plates were incubated in a 37° C. cell culture incubator with 5% CO2 for up to three days. Supernatants were collected 48 hours after stimulation, and human IL-2 and IFFγ were detected using HTRF assays. Raw data were analyzed using Excel or Prism software to generate standard curves to interpolate protein concentrations. Data represents one study with three different donor PBMC tested in experimental duplicates.

[3] = target: T1, CD137; test: CD137 reporter assay, co-culture with EphA2 tumour cells; type: cell-based; set-up: host or cells: Jurkat reporter cells; conditions: tumour target EphA2, co-culture with PC3, at 100 nM; read-out: Fold Induction over Background at 100 nM
How it was run: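 Jurkat CD137 reporter cells co-cultured with tumour cells and serially diluted test articles in RPMI-1640 + 1% FBS, 6 h at 37 °C, 5% CO2. Luminescence read after Bio-Glo; fold change over cells-only background fitted log(agonist) vs response for EC50 (nM) and maximal fold induction.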

[4] = target: T1, CD137; test: CD137 Biacore (SPR) binding assay; set-up: purchased R&D systems; conditions: biotinylated human CD137, 25° C.
Experimental: Biacore experiments were performed to determine ka (M^−1s^−1), kd (s^−1), KD (nM) values of heterotandem peptides binding to human CD137 protein. […] The protein was desalted to remove uncoupled biotin using spin columns into PBS.
For analysis of peptide binding, a Biacore T200 or a Biacore 3000 instrument was used with a XanTec CMD500D chip. Streptavidin was immobilized on the chip using standard amine-coupling chemistry at 25° C. with HBS-N (10 mM HEPES, 0.15 M NaCl, pH 7.4) as the running buffer. Briefly, the carboxymethyl dextran surface was activated with a 7 min injection of a 1:1 ratio of 0.4 M 1-ethyl-3-(3-dimethylaminopropyl) carbodiimide hydrochloride (EDC)/0.1 M N-hydroxy succinimide (NHS) at a flow rate of 10 μl/min. For capture of streptavidin, the protein was diluted to 0.2 mg/ml in 10 mM sodium acetate (pH 4.5) and captured by injecting 120 μl of onto the activated chip surface. Residual activated groups were blocked with a 7 min injection of 1 M ethanolamine (pH 8.5) and biotinylated CD137 captured to a level of 270-1500 RU. Buffer was changed to PBS/0.05% Tween 20 and a dilution series of the peptides was prepared in this buffer with a final DMSO concentration of 0.5%. The top peptide concentration was 500 nM with 6 further 2-fold or 3-fold dilutions. The SPR analysis was run at 25° C. at a flow rate of 90 μl/min with 60 seconds association and 900 seconds dissociation. After each cycle a regeneration step (10 μl of 10 mM glycine pH 2) was employed. Data were corrected for DMSO excluded volume effects as needed. All data were double-referenced for blank injections and reference surface using standard processing procedures and data processing and kinetic fitting were performed using Scrubber software, version 2.0c (BioLogic Software). Data were fitted using simple 1:1 binding model allowing for mass transport effects where appropriate.

[5] = target: T1, CD137; test: CD137 reporter assay, co-culture with PD-L1 expressing cell line RKO; type: cell-based; set-up: host or cells: Jurkat reporter cells; conditions: tumour target PD-L1, co-culture with RKO, 6 h
Experimental: Culture medium referred to as R1 media is prepared by adding 1% FBS to RPMI-1640 (component of Promega kit CS196005). Serial dilutions of test articles in R1 are prepared in a sterile 96 well-plate. Use 25 μl per well of test articles or R1 (as a background control) to designated wells in white cell culture plate. Tumour cells* are harvested and resuspended at a concentration of 400,000 cells/mL in R1 media. Twenty five (25) μL/well tumour cells are used in white cell culture plate. Jurkat cells (Promega kit CS196005, 0.5 mL) are thawed in the water bath and then added to 5 ml pre-warmed R1 medium. Twenty five (25) μL/well Jurkat cells are used in white cell culture plate. Incubate the cells and test articles for 6h at 37° C., 5% CO2. At the end of 6 h, add 75 μl/well Bio-Glo™ (Promega) and incubate for 10 min before reading luminescence in a plate reader (Clariostar, BMG). The fold change relative to cells (Jurkat cells+Cell line used in co-culture) is calculated and plotted in GraphPad Prism as log(agonist) vs response to determine EC50 (nM) and Fold Induction over background (Max)

T1 sequence (Q07011 24-255): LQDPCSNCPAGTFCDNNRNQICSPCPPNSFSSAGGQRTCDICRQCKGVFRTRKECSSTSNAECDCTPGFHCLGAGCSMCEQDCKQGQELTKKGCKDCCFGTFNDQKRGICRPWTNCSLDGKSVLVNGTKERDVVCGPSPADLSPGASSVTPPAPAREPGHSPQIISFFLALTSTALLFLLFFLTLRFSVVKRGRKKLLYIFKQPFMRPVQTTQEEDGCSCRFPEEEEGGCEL

Compound: CCCC[C@@H]1NC(=O)[C@H](Cc2ccc(O)cc2)NC(=O)[C@@H]2CCCN2C(=O)[C@H](CC(=O)O)NC(=O)[C@H](C)NC(=O)[C@H](Cc2ccccc2)NC(=O)[C@@H]2CSCCC(=O)N3CN(CN(C3)C(=O)CCSC[C@@H](C(=O)N[C@@H](CNC(=O)CCOCCOCCOCCOCCOCCOCCOCCOCCOCCOCCOCCOCCn3cc(CCC(=O)NCCC(=O)N(C)CC(=O)N(C)CC(=O)N(C)CC(=O)N(C)CC(=O)N(C)CC(=O)N(C)CC(=O)N(C)CC(=O)N(C)CC(=O)N(C)CC(=O)N(C)CC(=O)N[C@H]4CSCCC(=O)N5CN6CN(C5)C(=O)CCSC[C@H](NC(=O)[C@@H](CC(=O)O)NC(=O)[C@H](Cc5cccc7ccccc57)NC(=O)[C@@H]5CCCN5C4=O)C(=O)N[C@@H](CCSC)C(=O)N[C@@H](CCCCNC(=N)N)C(=O)N[C@@H](CC(=O)O)C(=O)N[C@@H](Cc4c[nH]c5ccccc45)C(=O)N[C@@H](CO)C(=O)N[C@@H]([C@@H](C)O)C(=O)N4CCC[C@H]4C(=O)N4C[C@H](O)C[C@H]4C(=O)N[C@@H](Cc4c[nH]c5ccccc45)C(=O)N[C@H](C(N)=O)CSCCC6=O)nn3)C(N)=O)NC1=O)C(=O)CCSC[C@H](NC(=O)[C@H](C)NC(C)=O)C(=O)N[C@@H]([C@@H](C)CC)C(=O)N[C@@H](CCC(=O)O)C(=O)N[C@@H](CCC(=O)O)C(=O)NCC(=O)N[C@@H](CCC(N)=O)C(=O)N[C@@H](Cc1ccc(O)cc1)C(=O)N2 [BCY8854]
- EC50 [1]: 1.2 nM
- Fold Induction over Background ([1]; tumour target Nectin4, co-culture with H1376, 6 h): 30 fold
- EC50 ([2]; IFN-γ secretion): 0.89 nM
- max IFN-y [2]: 15962 pg/mL

Compound: CCCC[C@@H]1NC(=O)[C@H](Cc2ccc(O)cc2)NC(=O)[C@@H]2CCCN2C(=O)[C@H](CC(=O)O)NC(=O)[C@@H](C)NC(=O)[C@H](Cc2ccccc2)NC(=O)[C@@H]2CSCCC(=O)N3CN(CN(C3)C(=O)CCSC[C@@H](C(=O)N[C@@H](CNC(=O)CCOCCOCCOCCOCCOCCOCCOCCOCCOCCOCCOCCOCCn3cc(CCC(=O)NCCC(=O)N(C)CC(=O)N(C)CC(=O)N(C)CC(=O)N(C)CC(=O)N(C)CC(=O)N(C)CC(=O)N(C)CC(=O)N(C)CC(=O)N(C)CC(=O)N(C)CC(=O)N[C@@H](C)C(=O)N[C@@H](CCCCNC(=N)N)C(=O)N[C@@H](CC(=O)O)C(=O)N[C@H]4CSCCC(=O)N5CN6CN(C5)C(=O)CCSC[C@H](NC(=O)[C@H](CC(C)C)NC(=O)[C@@H]5CCCN5C(=O)[C@H](CC(N)=O)NC(=O)[C@H](C(C)C)NC(=O)[C@H](CC(C)C)NC(=O)[C@@H]5C[C@@H](O)CN5C4=O)C(=O)N[C@@H](CC(C)C)C(=O)N[C@@H](Cc4c[nH]cn4)C(=O)N4CCC[C@H]4C(=O)N[C@H](CC(=O)O)C(=O)N[C@@H](Cc4c[nH]c5ccccc45)C(=O)N[C@@H](CCCCNC(=N)N)C(=O)N[C@H](C(N)=O)CSCCC6=O)nn3)C(N)=O)NC1=O)C(=O)CCSC[C@H](NC(=O)[C@H](C)NC(C)=O)C(=O)N[C@@H]([C@@H](C)CC)C(=O)N[C@@H](CCC(=O)O)C(=O)N[C@@H](CCC(=O)O)C(=O)NCC(=O)N[C@@H](CCC(N)=O)C(=O)N[C@@H](Cc1ccc(O)cc1)C(=O)N2 [BCY8942]
- fold induction at 0.1 µM [3]: < 2
- Kd [4]: 853 nM

Compound: CCCC[C@@H]1NC(=O)[C@H](Cc2ccc(O)cc2)NC(=O)[C@@H]2CCCN2C(=O)[C@H](CC(=O)O)NC(=O)[C@H](C)NC(=O)[C@H](Cc2ccccc2)NC(=O)[C@@H]2CSCCC(=O)N3CN(CN(C3)C(=O)CCSC[C@@H](C(=O)N[C@@H](C)C(N)=O)NC1=O)C(=O)CCSC[C@H](NC(C)=O)C(=O)N[C@@H](CC(C)(C)C)C(=O)N1CCC[C@H]1C(=O)N[C@@H](CCC(=O)O)C(=O)N[C@H](CCCCNC(=O)CCOCCOCCOCCOCCOCCn1cc(CCC(=O)NCCCC[C@@H]3NC(=O)[C@H](CCC(N)=O)NC(=O)[C@@H]4CSCCC(=O)N5CN(CN(C5)C(=O)CCSC[C@@H](C(=O)N5CCC[C@H]5C(=O)N[C@@H](CO)C(=O)N[C@@H](Cc5c[nH]cn5)C(N)=O)NC(=O)[C@H](CC(C)C)NC(=O)[C@H](Cc5c[nH]cn5)NC(=O)[C@H](CC(C)C)NC3=O)C(=O)CCSC[C@H](NC(=O)[C@H](CCCCN)NC(=O)[C@H](CC(=O)O)NC(=O)[C@H](CO)NC(C)=O)C(=O)N[C@@H](CO)C(=O)N[C@@H](C)C(=O)NCC(=O)N[C@@H](Cc3c[nH]c5ccccc35)C(=O)N[C@@H](CC(C)C)C(=O)N[C@@H]([C@@H](C)O)C(=O)N[C@@H](CCSC)C(=O)N4)nn1)C(=O)N1CCC[C@H]1C(=O)N[C@@H](Cc1ccc(O)cc1)C(=O)N2 [BCY11380]
- Fold Induction over Background [5]: 7 fold

Compound: CCCC[C@@H]1NC(=O)[C@H](Cc2ccc(O)cc2)NC(=O)[C@@H]2CCCN2C(=O)[C@H](CC(=O)O)NC(=O)[C@H](C)NC(=O)[C@H](Cc2ccccc2)NC(=O)[C@@H]2CSCCC(=O)N3CN(CN(C3)C(=O)CCSC[C@@H](C(=O)N[C@@H](CNC(=O)CCOCCOCCOCCOCCOCCn3cc(CCC(=O)NCCCC[C@@H]4NC(=O)[C@H](CCC(N)=O)NC(=O)[C@@H]5CSCCC(=O)N6CN(CN(C6)C(=O)CCSC[C@@H](C(=O)N6CCC[C@H]6C(=O)N[C@@H](CO)C(=O)N[C@@H](Cc6c[nH]cn6)C(N)=O)NC(=O)[C@H](CC(C)C)NC(=O)[C@H](Cc6c[nH]cn6)NC(=O)[C@H](CC(C)C)NC4=O)C(=O)CCSC[C@H](NC(=O)[C@H](CCCCN)NC(=O)[C@H](CC(=O)O)NC(=O)[C@H](CO)NC(C)=O)C(=O)N[C@@H](CO)C(=O)N[C@@H](C)C(=O)NCC(=O)N[C@@H](Cc4c[nH]c6ccccc46)C(=O)N[C@@H](CC(C)C)C(=O)N[C@@H]([C@@H](C)O)C(=O)N[C@@H](CCSC)C(=O)N5)nn3)C(N)=O)NC1=O)C(=O)CCSC[C@H](NC(C)=O)C(=O)N[C@@H](CC(C)(C)C)C(=O)N1CCC[C@H]1C(=O)N[C@@H](CCC(=O)O)C(=O)N[C@H](C)C(=O)N1CCC[C@H]1C(=O)N[C@@H](Cc1ccc(O)cc1)C(=O)N2 [BCY11381]
- fold induction ([5]; read-out: Fold Induction over Background): 7
